The values below come from patent US8158657B2, “Heterocycles substituted pyridine derivatives and antifungal agent containing thereof” (Eisai R&D Management Co., Ltd., priority 2005, dated 2012).

Values after ≈ are worked out from the molar mass of the structure shown. Where two headings read alike, the source gives them in different places. Where only a bound is given, the exact number is not on record here.

The test system of assay [1] is A. fumigatus Tsukuba strain. Description: Anti-Aspergillus activity, MIC measurement. It counts as cell-based. Conditions: RPMI1640, 42-48 hours at 35° C., visual inspection, read-out: Anti-Aspergillus Activity (minimum inhibitory concentration, MIC). The protocol: (§1) For the C. albicans CAF2-1 strain, a fungal suspension from a standing culture for 48 hours at 30° C. in a Sabouraud dextrose liquid culture medium (SDB) was diluted with RPMI1640 medium to adjust a fungal suspension of 1.2×10^3 cells/mL. For the A. fumigatus Tsukuba strain, −80° C. stored strain was diluted with RPMI1640 medium to adjust to a fungal suspension of 4.5×10^3 cells/mL.
(§2) Using a U-bottomed 96 well plate, 8 samples/plate (A to H) of sample dilution solutions were prepared. On the 2nd to 12th rows were dispensed 10 μL of dimethyl sulfoxide solution. Weighted sample was dissolved in dimethyl sulfoxide to prepare a 2.5 mg/mL solution, 20 μL of this solution was added to the first row of the prepared plate, and 12 steps of two-fold step dilutions (10 μL of solution+10 μL of dimethyl sulfoxide solution) were performed on the plate. This sample dilution solution was dispensed in the amount of 1 μL to a flat-bottomed 96 well plate for MIC measurement to prepare a sample dilution plate.
(§3) The fungal suspension prepared in (1) was used in the amount of 99 μL/well to inoculate the flat-bottomed 96 well plate containing 1 μL/well of the test compound dilution prepared in (2), and a standing culture was carried out aerobically for 42-48 hours at 35° C.

In assay [2] the test system is C. albicans CAF2-1 strain. Description: Anti-Candida activity, MIC measurement. It counts as cell-based. The following applies: CAF21STRAIN, read-out: Anti-Candida Activity (minimum inhibitory concentration, MIC). The protocol: as §1, §2, §3
[3] abbreviates: C. albicans CAF2-1, RPMI1640, 42-48 hours at 35° C., visual inspection.

As for `Nc1ccc(-c2cc(Cc3cccc(OCc4ccccn4)c3)no2)c(N)n1` [Example 118, 3-(3-(3-(Pyridin-2-ylmethoxy)-benzyl)-isoxazol-5-yl)-pyridin-2,6-diamine], the MIC stood at 3.13 µg/mL (≈ 8.38 µM) in assay [1] and 0.78 µg/mL (≈ 2.09 µM) in assay [2] (setting [3]).

With `Nc1ccc(-c2cc(Cc3ccc(Oc4cccc(F)c4)cc3)no2)c(N)n1` [Example 142, 3-(3-(4-(3-Fluoro-phenoxy)-benzyl)-isoxazol-5-yl)-pyridin-2,6-diamine], the MIC in assay [1] and in assay [2] (setting [3]) was 0.39 µg/mL (≈ 1.04 µM) throughout.

On to `Nc1ncccc1-c1cc(Cc2ccc(Br)cc2)no1` [Example 207, 3-(3-(4-bromo-benzyl)-isoxazol-5-yl)-pyridin-2-ylamine], for which the MIC in assay [1] stood at 6.25 µg/mL (≈ 18.9 µM); in assay [2] (setting [3]), 25 µg/mL (≈ 75.7 µM).

As to `Nc1ccc(-c2cc(Cc3ccc(CSc4ccccc4)cc3)no2)c(N)n1` [Example 217, 3-(3-(4-Phenylsulfanylmethyl-benzyl)-isoxazol-5-yl)-pyridin-2,6-diamine], the results for the MIC in assay [1] and in assay [2] (setting [3]) were 0.2 µg/mL (≈ 0.515 µM) and 0.1 µg/mL (≈ 0.257 µM), respectively.

`C#Cc1cccc(COc2ccc(Cc3cc(-c4ccc(N)nc4N)on3)cc2)c1` [Example 214, 3-(3-(4-(3-Ethynyl-benzyloxy)-benzyl)-isoxazol-5-yl)-pyridin-2,6-diamine]: the MIC in assay [1] and in assay [2] (setting [3]) was 0.39 µg/mL (≈ 0.984 µM) each time.

For `C#CCOc1ccc(Cc2cc(-c3ccc(N)nc3N)on2)cc1` [Example 219, 3-(3-(4-Prop-2-ynyloxy-benzyl)-isoxazol-5-yl)-pyridine-2,6-diamine], the MIC in assay [1] and in assay [2] (setting [3]) was 3.13 µg/mL (≈ 9.77 µM) each time.

With `Nc1ncccc1-c1cc(Cc2ccc(OCc3ccsc3)cc2)no1` [Example 77, 3-(3-(4-(Thiophen-3-ylmethoxy)-benzyl)-isoxazol-5-yl)-pyridin-2-ylamine], the MIC worked out at 0.39 µg/mL (≈ 1.07 µM) in assay [1] and 0.2 µg/mL (≈ 0.55 µM) in assay [2] (setting [3]).

Consider `Cc1ccc(Cc2ccc(Cc3cc(-c4ccc(N)nc4)on3)cc2)o1` [Example 178, 5-(3-(4-(5-Methyl-furan-2-ylmethyl)-benzyl)-isoxazol-5-yl)-pyridin-2-ylamine], for which the MIC came to 0.2 µg/mL (≈ 0.579 µM) in assay [1] and 0.39 µg/mL (≈ 1.13 µM) in assay [2] (setting [3]).

In the case of `Nc1ccc(-c2cc(Cc3ccc(NCc4ccccc4)cc3)no2)c(N)n1` [Example 128, 3-(3-(4-Benzylamino-benzyl)-isoxazol-5-yl)-pyridin-2,6-diamine], the MIC is 0.39 µg/mL (≈ 1.05 µM) in assay [1] and 0.2 µg/mL (≈ 0.538 µM) in assay [2] (setting [3]).

As to `c1ccc(COc2ccc(Cc3cc(-c4cccnc4)on3)cc2)nc1` [Example 203, 3-(3-(4-(Pyridin-2-ylmethoxy)-benzyl)-isoxazol-5-yl)-pyridine], the MIC in assay [1] came out at 1.56 µg/mL (≈ 4.54 µM); in assay [2] (setting [3]) it was 0.2 µg/mL (≈ 0.582 µM).

As for `Nc1ncccc1-c1cc(Cc2ccc(OCc3ccccn3)c(F)c2)no1` [Example 87, 3-(3-(3-Fluoro-4-(pyridin-2-ylmethoxy)-benzyl)-isoxazol-5-yl)-pyridin-2-ylamine], the MIC came to 0.78 µg/mL (≈ 2.07 µM) in assay [1] and 0.2 µg/mL (≈ 0.531 µM) in assay [2] (setting [3]).

On to `Nc1ccc(-c2cc(Cc3ccc(COc4ccccn4)cc3F)no2)c(N)n1` [Example 211, 3-(3-(2-Fluoro-4-(pyridin-2-yloxymethyl)-benzyl)-isoxazol-5-yl)-pyridin-2,6-diamine], for which the MIC in assay [1] and in assay [2] (setting [3]) was 0.39 µg/mL (≈ 0.996 µM) throughout.

Turning to `Nc1ccc(-c2cc(Cc3ccc(Oc4ccccn4)cc3)no2)c(N)n1` [Example 222, 3-(3-(4-(Pyridin-2-yloxy)-benzyl)-isoxazol-5-yl)-pyridin-2,6-diamine], the MIC in assay [1] and in assay [2] (setting [3]) was 0.39 µg/mL (≈ 1.09 µM) each time.

Turning to `Nc1ncccc1-c1cc(Cc2ccc(OCc3cccnc3)cc2)no1` [Example 50, 3-(3-(4-(Pyridin-3-ylmethoxy)-benzyl)-isoxazol-5-yl)-pyridin-2-ylamine], the MIC worked out at 1.56 µg/mL (≈ 4.35 µM) in assay [1] and 0.78 µg/mL (≈ 2.18 µM) in assay [2] (setting [3]).

For the compound `Nc1ccc(-c2cc(Cc3ccc(OCc4ccc(F)cn4)cc3)no2)cn1` [Example 184, 5-(3-(4-(5-Fluoro-pyridin-2-ylmethoxy)-benzyl)-isoxazol-5-yl)-pyridin-2-ylamine], the MIC is 0.39 µg/mL (≈ 1.04 µM) in assay [1] and over 25 µg/mL in assay [2] (setting [3]).

With `Nc1ccc(-c2cc(Cc3ccc(COc4ncccc4F)cc3)no2)c(N)n1` [Example 149, 3-(3-(4-(3-Fluoro-pyridin-2-yloxymethyl)-benzyl)-isoxazol-5-yl)-pyridin-2,6-diamine], the MIC in assay [1] came out at 1.56 µg/mL (≈ 3.99 µM); in assay [2] (setting [3]), 6.25 µg/mL (≈ 16 µM).

Turning to `Nc1ccc(-c2cc(Cc3cccc(OCC4CC4)c3)no2)c(N)n1` [Example 125, 3-(3-(3-Cyclopropylmethoxy-benzyl)-isoxazol-5-yl)-pyridin-2,6-diamine], the MIC turned out to be 0.39 µg/mL (≈ 1.16 µM) in assay [1] and 0.1 µg/mL (≈ 0.297 µM) in assay [2] (setting [3]).

On to `C#CCOCc1ccc(Cn2cc(-c3cccnc3N)cn2)cc1` [Example 194, 3-(1-(4-Prop-2-ynyloxymethyl-benzyl)-1H-pyrazol-4-yl)-pyridin-2-ylamine], for which the MIC in assay [1] amounted to 3.13 µg/mL (≈ 9.83 µM); in assay [2] (setting [3]), 1.56 µg/mL (≈ 4.9 µM).

Consider `CC(C)=CCOc1ccc(Cc2cc(-c3ccc(N)nc3N)on2)cc1` [Example 218, 3-(3-(4-(3-Methyl-2-but-2-enyloxy)-benzyl)-isoxazol-5-yl)-pyridin-2,6-diamine], for which the MIC in assay [1] came to 0.1 µg/mL (≈ 0.285 µM); in assay [2], 0.2 µg/mL (≈ 0.571 µM).

On to `CCCCOc1cccc(Cc2cc(-c3ccc(N)nc3N)on2)c1` [Example 124, 3-(3-(3-Butoxy-benzyl)-isoxazol-5-yl)-pyridin-2,6-diamine], for which the MIC in assay [1] came out at 0.39 µg/mL (≈ 1.15 µM); in assay [2] (setting [3]), 0.2 µg/mL (≈ 0.591 µM).

In the case of `Cc1cccc(COc2ccc(Cc3cc(-c4ccc(N)nc4N)on3)cc2)n1` [Example 23, 3-(3-(4-(6-Methyl-pyridin-2-ylmethoxy)-benzyl)-isoxazol-5-yl)-pyridin-2,6-diamine], the MIC came to 1.56 µg/mL (≈ 4.03 µM) in assay [1] and 0.78 µg/mL (≈ 2.01 µM) in assay [2] (setting [3]).

`Nc1ncccc1-c1cc(Cc2ccc(COc3ccccn3)cc2F)no1` [Example 204, 3-(3-(2-Fluoro-4-(pyridin-2-yloxymethyl)-benzyl)-isoxazol-5-yl)-pyridin-2-ylamine]: the MIC in assay [1] came out at 0.39 µg/mL (≈ 1.04 µM); in assay [2] (setting [3]), 0.2 µg/mL (≈ 0.531 µM).

`N#Cc1cccc(COc2ccc(Cc3cc(-c4ccc(N)nc4N)on3)cc2)c1` [Example 212, 3-(4-(5-(2,6-Diamino-pyridin-3-yl)-isoxazol-3-ylmethyl)-phenoxymethyl)benzonitrile]: the MIC in assay [1] and in assay [2] (setting [3]) was 0.78 µg/mL (≈ 1.96 µM) each time.

As to `Nc1ncccc1-c1cc(Cc2ccc(OCc3ccc(Cl)cn3)cc2)no1` [Example 63, 3-(3-(4-(5-Chloro-pyridin-2-ylmethoxy)-benzyl)-isoxazol-5-yl)-pyridin-2-ylamine], the MIC in assay [1] and in assay [2] (setting [3]) was 0.78 µg/mL (≈ 1.99 µM) each time.

Turning to `Nc1ncccc1-c1cnn(Cc2ccc(COC3CCC3)cc2)c1` [Example 197, 3-(1-(4-Cyclobutoxymethyl-benzyl)-1H-pyrazol-4-yl)-pyridin-2-ylamine], the MIC was 1.56 µg/mL (≈ 4.66 µM) in assay [1] and 3.13 µg/mL (≈ 9.36 µM) in assay [2] (setting [3]).

As for `Nc1ncccc1-c1cc(Cc2ccc(CCc3ccccn3)cc2)no1` [Example 93, 3-(3-(4-(2-Pyridin-2-yl-ethyl)-benzyl)-isoxazol-5-yl)-pyridin-2-ylamine], the MIC in assay [1] was determined as 1.56 µg/mL (≈ 4.38 µM); in assay [2] (setting [3]), 0.2 µg/mL (≈ 0.561 µM).

As to `CNc1ccc(-c2cc(Cc3ccc(OCc4ccccc4)nc3)no2)c(N)n1` [Example 224, 3-(3-(6-Benzyloxy-pyridin-3-ylmethyl)-isoxazol-5-yl)-N^6-methyl-pyridin-2,6-diamine], the MIC in assay [1] turned out to be 0.2 µg/mL (≈ 0.516 µM); in assay [2] (setting [3]), 0.39 µg/mL (≈ 1.01 µM).

Regarding `Cc1ccc(OCc2ccc(Cc3cc(-c4ccc(N)nc4N)on3)cc2)nc1` [Example 103, 3-(3-(4-(5-Methyl-pyridin-2-yloxymethyl)-benzyl)-isoxazol-5-yl)-pyridin-2,6-diamine], the MIC in assay [1] was 0.78 µg/mL (≈ 2.01 µM); in assay [2] (setting [3]), 1.56 µg/mL (≈ 4.03 µM).

For `Nc1ccc(-c2cc(Cc3cccc(OCc4ccccc4)c3)no2)c(N)n1` [Example 119, 3-(3-(3-Benzyloxy-benzyl)-isoxazol-5-yl)-pyridin-2,6-diamine], the MIC is 0.78 µg/mL (≈ 2.09 µM) in assay [1] and 0.39 µg/mL (≈ 1.05 µM) in assay [2] (setting [3]).

Turning to `Nc1ncccc1-c1cc(Cc2ccc(OCc3ccc(F)cn3)cc2F)no1` [Example 96, 3-(3-(2-Fluoro-4-(5-fluoro-pyridin-2-ylmethoxy)-benzyl)-isoxazol-5-yl)pyridin-2-ylamine], the MIC in assay [1] came to 0.78 µg/mL (≈ 1.98 µM); in assay [2] (setting [3]), 3.13 µg/mL (≈ 7.94 µM).

On to `Nc1ncc(Cl)cc1-c1cc(Cc2ccc(COc3ccccn3)cc2)no1` [Example 172], for which the MIC in assay [1] came to 12.5 µg/mL (≈ 31.8 µM); in assay [2] (setting [3]) it was 6.25 µg/mL (≈ 15.9 µM).

For `Cc1ccc(Cc2ccc(Cc3cc(-c4cccnc4N)on3)cc2)o1` [Example 46, 3-(3-(4-(5-Methyl-furan-2-ylmethyl)-benzyl)-isoxazol-5-yl)-pyridin-2-ylamine], the MIC in assay [1] worked out at 0.2 µg/mL (≈ 0.579 µM); in assay [2] (setting [3]) it was 0.05 µg/mL (≈ 0.145 µM).

For `Nc1ccc(-c2cc(Cc3ccc(SCc4ccccc4)cc3)no2)c(N)n1` [Example 216, 3-(3-(4-Benzylsulfanyl-benzyl)-isoxazol-5-yl)-pyridin-2,6-diamine], the MIC in assay [1] and in assay [2] (setting [3]) was 0.39 µg/mL (≈ 1 µM) in each case.

Take `Nc1ccc(-c2cnn(Cc3ccc(OCc4ccccn4)cc3)c2)c(N)n1` [Example 199]: the values for the MIC in assay [1] and in assay [2] (setting [3]) were 6.25 µg/mL (≈ 16.8 µM) and 3.13 µg/mL (≈ 8.4 µM), respectively.
